The record followed here is ChEMBL document CHEMBL1129719, “The synthesis of a radioligand with high potency and selectivity for CCKB/ gastrin receptors” (Bioorg Med Chem Lett, 1996).

SMILES strings stand for the structures.

The species entered for test [1] is Rattus norvegicus. The experiment in a line: Bmax value was determined in rat cerebral cortical membranes.
The species named for test [2] is Rattus norvegicus. In words: pKD value in rat cerebral cortical membranes. The test is classed as functional.
For test [3], the target named is T1, Gastrin/cholecystokinin type B receptor (Rattus norvegicus, UniProt P30553).
T1 sequence (P30553 whole entry): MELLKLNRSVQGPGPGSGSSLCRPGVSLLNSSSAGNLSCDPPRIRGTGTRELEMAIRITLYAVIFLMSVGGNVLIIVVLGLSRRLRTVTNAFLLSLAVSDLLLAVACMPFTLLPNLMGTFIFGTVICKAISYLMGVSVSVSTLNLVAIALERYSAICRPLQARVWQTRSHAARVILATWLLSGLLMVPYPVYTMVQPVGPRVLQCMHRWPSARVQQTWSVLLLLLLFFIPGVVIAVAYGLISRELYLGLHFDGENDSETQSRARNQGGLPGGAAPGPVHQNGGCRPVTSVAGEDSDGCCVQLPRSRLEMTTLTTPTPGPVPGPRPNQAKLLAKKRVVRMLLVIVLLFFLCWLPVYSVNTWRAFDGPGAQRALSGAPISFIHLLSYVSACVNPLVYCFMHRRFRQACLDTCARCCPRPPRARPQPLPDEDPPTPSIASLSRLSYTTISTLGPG
In words: Compound was tested for binding affinity against Cholecystokinin type B receptor in rat cortical membranes using L-365260 as the radioligand. In kind it is cell membranes.

For orientation: pKD means the KD on a negative log10 scale, so that one unit is a factor of ten. Low readings indicate a large KD, high ones a small KD. One may read the Ki as a dissociation constant, usually derived from enzyme kinetics or from competition with a known ligand. `O=C(O)c1cc(NC(=O)[C@H](Cc2ccccc2)NC(=O)c2cc3cc[nH]c3cc2C(=O)NCC23CC4CC(CC(C4)C2)C3)cc(C(=O)O)c1`: the Bmax in the test listed under Rattus norvegicus [1] worked out at 3.61 pM/g. Also, the pKD in the test listed under Rattus norvegicus [2] turned out to be 9.48. This molecule also showed a Ki in test [3] of 23.4 nM.
